Measured values: patent US8865756B2, “Inhibitors of HCV NS5A” (Presidio Pharmaceuticals, Inc., priority 2008, dated 2014)

System: HCV 1b_Huh-Luc/Neo-ET cell line persistently expressing a bicistronic genotype 1b replicon in Huh 7 cells
Test: HCV replicon assay (luciferase readout)
Type: cell-based
Settings: Hepatitis C virus, Huh-7, 72 h, read-out: Inhibition of HCV genotype 1b
How it was run: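 Huh 7 cells carrying a genotype 1b luciferase/neo replicon treated in triplicate for 72 h, then luciferase activity measured. Signal expressed as % of control; EC50 from four-parameter logistic fit, determined several times.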

Row | Structure (SMILES) | EC50 [nM]
1 | COC(=O)N[C@H](C(=O)N[C@@H](C)c1ncc(-c2ccc(C#Cc3ccc(-c4cnc([C@@H]5CCCN5C(=O)[C@H](C(C)C)N(C)C)[nH]4)cc3)cc2)[nH]1)C(C)C [Compound 963] | 1 to 9.9
2 | COC(=O)N[C@H](C(=O)N[C@@H](C)c1ncc(-c2ccc(C#Cc3ccc(-c4cnc([C@@H]5CCCN5C(=O)[C@@H](C(C)C)N(C)C)[nH]4)cc3)cc2)[nH]1)C(C)C [Compound 964] | 1 to 9.9
3 | COC(=O)N[C@H](C(=O)N[C@@H](C)c1ncc(-c2ccc(C#Cc3ccc(-c4cnc([C@@H]5CCCN5C(=O)[C@@H](c5ccccc5)N(C)C)[nH]4)cc3)cc2)[nH]1)C(C)C [Compound 965] | < 1
4 | CC(C)[C@H](NC(=O)N1CCC(C)(O)CC1)C(=O)N1CCC[C@H]1c1ncc(-c2ccc(C#Cc3ccc(-c4cnc([C@@H]5CCCN5C(=O)[C@@H](NC(=O)N5CCC(C)(O)CC5)C(C)C)[nH]4)cc3)cc2)[nH]1 [Compound 966] | 10 to 999
5 | CC(C)[C@H](NC(=O)N1CCNCC1)C(=O)N1CCC[C@H]1c1ncc(-c2ccc(C#Cc3ccc(-c4cnc([C@@H]5CCCN5C(=O)[C@@H](NC(=O)N5CCNCC5)C(C)C)[nH]4)cc3)cc2)[nH]1 [Compound 967] | 10 to 999
6 | CC(C)[C@H](NC(=O)N1CC[C@@H](O)C1)C(=O)N1CCC[C@H]1c1ncc(-c2ccc(C#Cc3ccc(-c4cnc([C@@H]5CCCN5C(=O)[C@@H](NC(=O)N5CC[C@@H](O)C5)C(C)C)[nH]4)cc3)cc2)[nH]1 [Compound 968] | 10 to 999
7 | COC(=O)N[C@H](C(=O)N[C@@H](C)c1ncc(-c2ccc(C#Cc3ccc(-c4cnc([C@H](C)NC(=O)[C@@H](NC(=O)OC)[C@@H](C)O)[nH]4)cc3)cc2)[nH]1)[C@@H](C)O [Compound 969] | < 1
8 | COC(=O)N[C@H](C(=O)N1CCC[C@H]1c1ncc(-c2ccc(C#Cc3ccc(-c4cnc([C@@H]5CCCN5C(=O)[C@@H](c5ccccc5)N5CCC(C)(O)CC5)[nH]4)cc3)cc2)[nH]1)C(C)C [Compound 970] | < 1
9 | COC(=O)NC(C(=O)N1CCC[C@H]1c1ncc(-c2ccc(C#Cc3ccc(-c4cnc([C@@H]5CCCN5C(=O)[C@@H](NC(=O)OC)C(C)C)[nH]4)cc3)cc2)[nH]1)[C@@H](C)O (stereo partly drawn) [Compound 971] | < 1
10 | COC(=O)NC(C(=O)N1CCC[C@H]1c1ncc(-c2ccc(C#Cc3ccc(-c4cnc([C@@H]5CCCN5C(=O)[C@@H](NC(=O)OC)C(C)C)[nH]4)cc3)cc2)[nH]1)[C@@H](C)OC (stereo partly drawn) [Compound 972] | < 1
11 | COC(=O)N[C@H](C(=O)N1CCC[C@H]1c1ncc(-c2ccc(C#Cc3ccc(-c4cnc([C@@H]5CCCN5C(=O)[C@H](NC(=O)N(CCO)CCO)c5ccccc5)[nH]4)cc3)cc2)[nH]1)C(C)C [Compound 973] | < 1
12 | COC(=O)N[C@H](C(=O)N1CCC[C@H]1c1ncc(-c2ccc(C#Cc3ccc(-c4cnc([C@@H]5CCCN5C(=O)[C@H](NC(=O)N5CC[C@H](O)C5)c5ccccc5)[nH]4)cc3)cc2)[nH]1)C(C)C [Compound 974] | < 1
13 | COC(=O)N[C@H](C(=O)N1CCC[C@H]1c1ncc(-c2ccc(C#Cc3ccc(-c4cnc([C@@H]5CCCN5C(=O)[C@H](NC(=O)N5CC[C@@H](O)C5)c5ccccc5)[nH]4)cc3)cc2)[nH]1)C(C)C [Compound 975] | < 1
14 | COC[C@H](NC(=O)OC)C(=O)N1CCC[C@H]1c1ncc(-c2ccc(C#Cc3ccc(-c4cnc([C@@H]5CCCN5C(=O)[C@H](COC)NC(=O)OC)[nH]4)cc3)cc2)[nH]1 [Compound 976] | < 1
15 | COC(=O)N[C@@H](C(=O)N1CCC[C@H]1c1ncc(-c2ccc(C#Cc3ccc(-c4cnc([C@@H]5CCCN5C(=O)[C@H](NC(=O)OC)[C@H](C)OC)[nH]4)cc3)cc2)[nH]1)[C@H](C)OC [Compound 977] | 10 to 999
16 | COC(=O)NC(C(=O)N1CCC[C@H]1c1ncc(-c2ccc(C#Cc3ccc(-c4cnc([C@@H]5CCCN5C(=O)[C@H](NC(=O)OC)[C@H](C)O)[nH]4)cc3)cc2)[nH]1)[C@H](C)O (stereo partly drawn) [Compound 978] | 10 to 999
17 | C[C@H]1OC(=O)N[C@@H]1C(=O)N1CCC[C@H]1c1ncc(-c2ccc(C#Cc3ccc(-c4cnc([C@@H]5CCCN5C(=O)[C@H]5NC(=O)O[C@@H]5C)[nH]4)cc3)cc2)[nH]1 [Compound 979] | 10 to 999
18 | C[C@H]1OC(=O)N(C)[C@@H]1C(=O)N1CCC[C@H]1c1ncc(-c2ccc(C#Cc3ccc(-c4cnc([C@@H]5CCCN5C(=O)[C@@H]5[C@@H](C)OC(=O)N5C)[nH]4)cc3)cc2)[nH]1 [Compound 980] | 10 to 999
19 | COC(=O)N[C@H](C(=O)N1CCC[C@H]1c1ncc(-c2ccc(C#Cc3ccc(-c4cnc([C@H](C)NC(=O)[C@H](C(C)C)N(C)C)[nH]4)cc3)cc2)[nH]1)C(C)C [Compound 981] | 10 to 999
20 | COC(=O)N[C@H](C(=O)N1CCC[C@H]1c1ncc(-c2ccc(C#Cc3ccc(-c4cnc([C@H](C)NC(=O)[C@@H](C(C)C)N(C)C)[nH]4)cc3)cc2)[nH]1)C(C)C [Compound 982] | 10 to 999
21 | COC(=O)N[C@H](C(=O)N1CCC[C@H]1c1ncc(-c2ccc(C#Cc3ccc(-c4cnc([C@H](C)NC(=O)[C@@H](c5ccccc5)N(C)C)[nH]4)cc3)cc2)[nH]1)C(C)C [Compound 983] | < 1

Row | Structure (SMILES) | EC50 [nM]
22 | COC(=O)N[C@H](C(=O)N1CCC[C@H]1c1ncc(-c2ccc(C#Cc3ccc(-c4cnc([C@@H]5CCCN5C(=O)[C@@H](c5ccccc5)N5CCCC5)[nH]4)cc3)cc2)[nH]1)C(C)C [Compound 984] | < 1
23 | CCN(CC)[C@@H](C(=O)N1CCC[C@H]1c1ncc(-c2ccc(C#Cc3ccc(-c4cnc([C@@H]5CCCN5C(=O)[C@@H](NC(=O)OC)C(C)C)[nH]4)cc3)cc2)[nH]1)c1ccccc1 [Compound 985] | < 1
24 | COC(=O)N[C@H](C(=O)N1CCC[C@H]1c1ncc(-c2ccc(C#Cc3ccc(-c4cnc([C@@H]5CCCN5C(=O)[C@@H](c5ccccc5)N5CCCCC5)[nH]4)cc3)cc2)[nH]1)C(C)C [Compound 986] | < 1
25 | COC(=O)N[C@H](C(=O)N1CCC[C@H]1c1ncc(-c2ccc(C#Cc3ccc(-c4cnc([C@@H]5CCCN5C(=O)[C@@H](c5ccccc5)N5CCOCC5)[nH]4)cc3)cc2)[nH]1)C(C)C [Compound 987] | < 1
26 | CC(C)[C@H](NC(=O)N1CC[C@H](O)C1)C(=O)N1CCC[C@H]1c1ncc(-c2ccc(C#Cc3ccc(-c4cnc([C@@H]5CCCN5C(=O)[C@@H](NC(=O)N5CC[C@H](O)C5)C(C)C)[nH]4)cc3)cc2)[nH]1 [Compound 988] | 10 to 999
27 | COC(=O)N[C@H](C(=O)N1CCC[C@H]1c1ncc(-c2ccc(C#Cc3ccc(-c4cnc([C@@H]5CCCN5C(=O)[C@H](NC(=O)N5CCN(C)CC5)c5ccccc5)[nH]4)cc3)cc2)[nH]1)C(C)C [Compound 989] | < 1
28 | COC(=O)N[C@H](C(=O)N1CCC[C@H]1c1ncc(-c2ccc(C#Cc3ccc(-c4cnc([C@@H]5CCCN5C(=O)[C@@H](NC(=O)N5CCN(CCO)CC5)c5ccccc5)[nH]4)cc3)cc2)[nH]1)C(C)C [Compound 990] | 1 to 9.9
29 | COC(=O)N[C@H](C(=O)N1CCC[C@H]1c1ncc(-c2ccc(C#Cc3ccc(-c4cnc([C@@H]5CCCN5C(=O)[C@H](NC(=O)N5CCC(O)CC5)c5ccccc5)[nH]4)cc3)cc2)[nH]1)C(C)C [Compound 991] | 1 to 9.9
30 | COC(=O)N[C@H](C(=O)N1CCC[C@H]1c1ncc(-c2ccc(C#Cc3ccc(-c4cnc([C@@H]5CCCN5C(=O)[C@H](NC(=O)N5CCC(C)(O)CC5)c5ccccc5)[nH]4)cc3)cc2)[nH]1)C(C)C [Compound 992] | < 1
31 | COC(=O)N[C@H](C(=O)N1CCC[C@H]1c1ncc(-c2ccc(C#Cc3ccc(-c4cnc([C@@H]5CCCN5C(=O)[C@@H](NC(=O)OC)C(C)(C)O)[nH]4)cc3)cc2)[nH]1)C(C)(C)O [Compound 993] | < 1
32 | COC(=O)N[C@H](C(=O)N1CCC[C@H]1c1ncc(-c2ccc(C#Cc3ccc(-c4cnc([C@@H]5CCCN5C(=O)[C@@H](NC(=O)OC)C(C)(C)O)[nH]4)cc3)cc2)[nH]1)C(C)C [Compound 994] | < 1
33 | COC(=O)N[C@H](C(=O)N1CCC[C@H]1c1ncc(-c2ccc(C#Cc3ccc(-c4cnc([C@@H]5CCCN5C(=O)[C@@H](Nc5cccnc5)C(C)C)[nH]4)cc3)cc2)[nH]1)C(C)C [Compound 995] | < 1
34 | COC(=O)N[C@H](C(=O)N1CCC[C@H]1c1ncc(-c2ccc(C#Cc3ccc(-c4cnc([C@@H]5CCCN5C(=O)[C@H](C(C)C)N5CCOC5=O)[nH]4)cc3)cc2)[nH]1)C(C)C [Compound 996] | < 1
35 | CNC(=O)N[C@@H](C(=O)N1CCC[C@H]1c1ncc(-c2ccc(C#Cc3ccc(-c4cnc([C@@H]5CCCN5C(=O)[C@H](NC(=O)C5CC5)c5ccccc5)[nH]4)cc3)cc2)[nH]1)c1ccccc1 [Compound 997] | < 1
36 | C[C@@H]1OC(=O)N[C@H]1C(=O)N1CCC[C@H]1c1ncc(-c2ccc(C#Cc3ccc(-c4cnc([C@@H]5CCCN5C(=O)[C@@H]5NC(=O)O[C@H]5C)[nH]4)cc3)cc2)[nH]1 [Compound 1000] | 10 to 999
37 | COC(=O)N[C@H](C(=O)N1CCC[C@H]1c1ncc(-c2ccc(C#Cc3ccc(-c4cnc([C@@H]5CCCN5C(=O)[C@@H](NC5CCOCC5)C(C)C)[nH]4)cc3)cc2)[nH]1)C(C)C [Compound 1001] | 1 to 9.9
38 | COC(=O)N[C@H](C(=O)N1CCC[C@H]1c1ncc(-c2ccc(C#Cc3ccc(-c4cnc([C@@H]5CCCN5C(=O)[C@H](NC(=O)OC)c5ccccc5)[nH]4)cc3)cc2)[nH]1)C(C)C [Compound 1002] | < 1
39 | COC(=O)N[C@H](C(=O)N1CCC[C@H]1c1ncc(-c2ccc(C#Cc3ccc(-c4cnc([C@@H]5CCCN5C(=O)[C@@H](Nc5ncccn5)C(C)C)[nH]4)cc3)cc2)[nH]1)C(C)C [Compound 1003] | < 1
40 | COC(=O)N[C@@H](C)C(=O)N1CCC[C@H]1c1ncc(-c2ccc(C#Cc3ccc(-c4cnc([C@@H]5CCCN5C(=O)[C@H](NC(=O)OC)c5ccccc5)[nH]4)cc3)cc2)[nH]1 [Compound 1004] | < 1
41 | COC(=O)N[C@@H](C(=O)N1CCC[C@H]1c1ncc(-c2ccc(C#Cc3ccc(-c4cnc([C@@H]5CCCN5C(=O)[C@H](C(C)C)N5CCOC5=O)[nH]4)cc3)cc2)[nH]1)c1ccccc1 [Compound 1005] | < 1
42 | CC(C)[C@@H](C(=O)N1CCC[C@H]1c1ncc(-c2ccc(C#Cc3ccc(-c4cnc([C@@H]5CCCN5C(=O)[C@H](C(C)C)N5CCOC5=O)[nH]4)cc3)cc2)[nH]1)N1CCOC1=O [Compound 1006] | 10 to 999
